Test results: patent publication US8323624B2, “S-triazine sunscreens bearing hindered para-aminobenzalmalonate/para-aminobenzalmalonamide and aminobenzoate/aminobenzamide substituents” (L'Oreal, priority 2004, dated 2012)

Assay: Photostability of oily-solution films under solar simulator irradiation, quantified by HPLC
Type: physicochemical
Details: 2% by weight in the oil Miglyol 812, film on ground glass; irradiated one hour with Oriel solar simulator (UV-A=14.2 mW/cm^2; UV-B=0.41 mW/cm^2); HPLC vs non-irradiated controls; means over 3 samples
Experimental: The two products were dissolved at 2% by weight in the oil Miglyol 812. Approximately 10 mg of oily solution are spread over 10 cm^2 at the surface of a hollow disc made of ground glass; the amount is determined by weighing.
The films of the oily solutions are irradiated for one hour using an Oriel solar simulator (UV-A=14.2 mW/cm^2; UV-B=0.41 mW/cm^2) and then extracted with 10 ml of ethanol comprising 10% of isopropanol subjected to ultrasound for 5 min. The products are quantified by analyzing the extracts by HPLC.
HPLC conditions: column: UP5WOD-25QS, 250×4.6 mm, 5 μm, Interchrom; eluent: methanol (Comparative Example 1) and 98% methanol+2% water (Example 1); flow rate: 1 ml/min; volume injected: 10 μl; detection: diode array detector; rt (min): 5.2 (compound of the prior art) and 7.4 (compound of Example 1).
The levels of loss are determined by comparison of the amounts of product present in the irradiated samples and in the non-irradiated controls prepared simultaneously and treated in the same way (means over 3 samples; A=area/mg of solution): % loss=100×(A0−Airr)/A0

Row | % of disappearance (mean loss) | Compound
1 | 10.0% | CC(C)COC(=O)C(=Cc1ccc(Nc2nc(Nc3ccc(C=C(C(=O)OCC(C)C)C(=O)OCC(C)C)cc3)nc(Nc3ccc(C=C(C(=O)OCC(C)C)C(=O)OCC(C)C)cc3)n2)cc1)C(=O)OCC(C)C [Compound (prior art), 2,4,6-Tris(diisobutyl 4′-aminobenzalmalonate)-s-triazine]
2 | 4.6% | CCCCOC(=O)c1ccc(Nc2nc(Nc3ccc(C=C(C(=O)OCC(C)(C)C)C(=O)OCC(C)(C)C)cc3)nc(Nc3ccc(C=C(C(=O)OCC(C)(C)C)C(=O)OCC(C)(C)C)cc3)n2)cc1 [Compound of formula (1), 2,4-bis(dineopentyl 4′-aminobenzalmalonate)-6-(butyl 4″-aminobenzoate)-s-triazine]
